Patent US20030207932A1, “Compositions that prevent post-traumatic hyperpigmentation and methods related thereto” (priority 2002, published 2003)

System: patients with a strong genetic predisposition to post traumatic hyperpigmentation
Assay: Proof of concept in patients predisposed to post traumatic hyperpigmentation
Assay type: in vivo, human
Settings: five subjects; oral zafirlukast alone, 20 mg two times daily, two weeks prior and thereafter for two months
Method: The patients were known to have this predisposition because prior trauma pigmented areas. Five of the subjects were given the oral composition zafirlukast, two weeks prior and thereafter for two months. The dosage was 20 mg two time daily. The other five individuals were give the same medication that the same dosage for the same amount of time, but in addition, were also given a topical preparation.
Five further patients were then selected with obvious genetic predisposition to post traumatic hyperpigmentation. They were given only the topical composition after their surgical procedure. The topical composition was applied three times daily for two months after the procedure. […] This was completely unexpected. The topical composition, as administered, is described in Table 1 below.

**Q.** COc1cc(C(=O)NS(=O)(=O)c2ccccc2C)ccc1Cc1cn(C)c2ccc(NC(=O)OC3CCCC3)cc12 [zafirlukast] was tested. Which development of hyperpigmentation did it give?
**A.** In no case did hyperpigmentation develop
